These results are taken from patent US20220127682A1, “SELECTION AND TREATMENT OF CANCER WITH COMBINATION THERAPIES” (Massachusetts Institute of Technology, priority 2020, published 2022).

Experiment [1] has as its system C4-2 castrate resistant prostate cancer cells. Kind of experiment: Cell viability (CellTiter-Glo, 72 h) of drug combinations vs Bliss expected. Type of experiment: cell-based. The note with it: C4-2 CRPC cells; combined with abiraterone; 72 hours; Bliss independence.
For experiment [2], the system named is LNCaP androgen-dependent prostate cancer cells. Described as above. Type of experiment: cell-based. The note with it: Bliss independence.
The test system of experiment [3] is MV-4-11 acute myeloid leukemia cells. The description is as above. It is filed as cell-based. The following applies: onvansertib 22.2 nM plus abiraterone.
Experiment [4] relates to OAW28 ovarian cancer cells. The experiment is described as above. It is filed as cell-based. The following applies: onvansertib 15 nM plus abiraterone.
Experiment [5] relates to OCI-AML-3 acute myeloid leukemia cells. The experiment is described as above. It is filed as cell-based. The note with it: onvansertib 22.2 nM plus abiraterone.
Experiment [6] relates to PSN-1 pancreatic cancer cells. The experiment is described as above. The following applies: onvansertib 22.2 nM plus abiraterone. It is filed as cell-based.
The subject of experiment [7] is Panc 10.05 pancreatic cancer cells. The experiment is described as above. Type of experiment: cell-based. The following applies: onvansertib 33.3 nM plus abiraterone.
Experiment [8] deals with more than 90 cell lines (multiple cancer types). The experiment is described as follows: Combinatorial drug screening of more than 90 cell lines for more than additive effect. The following applies: onvansertib and abiraterone; more than 90 cell lines screened; data not shown. It is filed as cell-based.
Experiment [9] deals with tumor cells and normal cells. The note with it: cited from earlier work.
Experiment [10] concerns large number of cell lines, solid and hematological tumors. The note with it: cited from earlier work.

Turning to `CN1CCN(c2ccc(OC(F)(F)F)c(Nc3ncc4c(n3)-c3c(c(C(N)=O)nn3CCO)CC4)c2)CC1` [onvansertib], in experiment [1], the “tumor cell killing of PLK inhibitor combined with abiraterone, vs expected additive” value was “more than additive”. In experiment [2], the “viability effect of PLK1 inhibitor combined with abiraterone, vs expected additive” value is recorded as “No greater than additive effect”. The “response to the combination of abiraterone and PLK1 inhibitor vs expected additive” value in experiment [3] is “greater than additive response”; in experiment [4] it was “do not have a greater than additive response”; in [5], “do not have a greater than additive response”; in [6], “greater than additive response”; in experiment [7] it was “do not have a greater than additive response”. In addition, in experiment [8], the “cell lines in which the more than additive effect was detected” value is “approximately 30%”. Besides, the “sensitivity of tumor cells to induced cell death relative to normal cells” value in experiment [9] is recorded as 10 fold. The “activity in proliferation assays” value in [10] is “low nanomolar activity”.
